Converted amounts (≈) assume the structure as drawn.
What was measured:
[1] = molecular target: T1, Enoyl-acyl-carrier protein reductase (Plasmodium falciparum, UniProt Q965D5); experiment: Inhibition of Plasmodium falciparum FabI
T1 sequence (Q965D5 whole entry): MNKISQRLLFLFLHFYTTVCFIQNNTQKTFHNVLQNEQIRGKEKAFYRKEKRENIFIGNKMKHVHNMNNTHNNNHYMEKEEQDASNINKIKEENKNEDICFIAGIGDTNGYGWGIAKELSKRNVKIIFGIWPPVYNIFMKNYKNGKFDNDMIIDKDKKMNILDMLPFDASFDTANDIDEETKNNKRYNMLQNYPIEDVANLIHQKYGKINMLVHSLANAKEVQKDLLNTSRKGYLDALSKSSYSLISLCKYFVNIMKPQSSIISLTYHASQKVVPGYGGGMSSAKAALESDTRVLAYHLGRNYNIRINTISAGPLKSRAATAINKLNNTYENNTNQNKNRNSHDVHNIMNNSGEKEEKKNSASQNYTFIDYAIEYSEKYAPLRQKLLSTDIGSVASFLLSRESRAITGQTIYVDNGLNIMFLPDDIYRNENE

[2] = tested on: Plasmodium falciparum; experiment: Antimalarial activity against chloroquine-resistant, pyrimethamine-resistant Plasmodium falciparum K1 after 48 hrs; type: functional, organism-based; conditions: K1, 48 h
[3] = tested on: Trypanosoma brucei rhodesiense; experiment: Antitrypanosomal activity against Trypanosoma brucei rhodesiense after 72 hrs by Alamar blue assay; type: functional, organism-based
[4] = tested on: Trypanosoma cruzi; experiment: Antitrypanosomal activity against Trypanosoma cruzi after 72 hrs; type: functional, organism-based
[5] = tested on: Leishmania donovani; experiment: Antileishmanial activity against Leishmania donovani after 72 hrs by Alamar blue assay; type: functional, organism-based
[6] = tested on: L6; experiment: Cytotoxicity against rat L6 cells after 72 hrs; type: cell-based; conditions: L6, 72 h
[7] = molecular target: T1, Enoyl-acyl-carrier protein reductase; experiment: Inhibition of Plasmodium falciparum FabI in presence of variable crotonyl-coA level
[8] = molecular target: T1, Enoyl-acyl-carrier protein reductase; experiment: Inhibition of Plasmodium falciparum FabI in presence of variable NADH levels

| SMILES | IC50 [1] [µM] | IC50 [2] [µg/mL] | IC50 [3] [µg/mL] | IC50 [4] [µg/mL] | IC50 [5] [µg/mL] | IC50 [6] [µg/mL] | Ki [7] [µM] | Ki [8] [µM] |
| --- | --- | --- | --- | --- | --- | --- | --- | --- |
| CC[C@@H](CC[C@@H](C)[C@H]1CC[C@H]2C3=CC[C@H]4C[C@@H](O)CC[C@]4(C)[C@H]3CC[C@]12C)C(C)C | 43.4 | 16.1 (≈ 38.8 µM) | 14.2 (≈ 34.2 µM) | > 30 | 29.5 (≈ 71.1 µM) | > 90 |  |  |
| O=C(O)C(F)(F)F.O=C(O)c1cc(Br)c(Br)[nH]1 | 104 | 49.9 | 25.2 | > 30 | 5.8 | > 90 |  |  |
| NC/C=C/c1cnc(N)[nH]1 | > 724 | 7.4 (≈ 53.6 µM) | 2.4 (≈ 17.4 µM) | 2.5 (≈ 18.1 µM) | 13.1 (≈ 94.8 µM) | 0.7 (≈ 5.07 µM) |  |  |
| COC(=O)c1cc(Br)c(Br)[nH]1 | > 353 | > 50 | 13.3 (≈ 47 µM) | > 30 | > 30 | > 90 |  |  |
| O=C(O)c1cc(Br)c(Br)[nH]1 | > 372 | > 50 | 20.9 (≈ 77.7 µM) | > 30 | 7.9 (≈ 29.4 µM) | > 90 |  |  |
| O=C(Cn1ccnc1[N+](=O)[O-])NCc1ccccc1 [BENZNIDAZOLE] |  |  |  | 0.17 (≈ 0.653 µM) |  |  |  |  |
| Nc1nc(N)nc(Nc2ccc([As]3SCC(CO)S3)cc2)n1 (centres undefined) [MELARSOPROL] |  |  | 0.0027 |  |  |  |  |  |
| Nc1ncc(/C=C/CNC(=O)c2cc(Br)c(Br)[nH]2)[nH]1.O=C(O)C(F)(F)F [OROIDIN TFA SALT] | 9.94 | 7.9 | 12.2 | > 30 | 15.4 | 76.4 |  |  |
| Nc1ncc(/C=C/CNC(=O)c2cc(Br)c(Br)[nH]2)[nH]1 [OROIDIN] | 0.771 | 3.9 (≈ 10 µM) | 17.3 (≈ 44.5 µM) | > 30 | > 30 | 88.6 (≈ 228 µM) | 0.4 | 0.8 |
| COc1cc([C@@H]2c3cc4c(cc3[C@H](O)[C@H]3COC(=O)[C@H]23)OCO4)cc(OC)c1OC [PODOFILOX] |  |  |  |  |  | 0.009 (≈ 0.0217 µM) |  |  |
| NCCS(=O)(=O)O [TAURINE] | > 799 | > 50 | 83.4 (≈ 666 µM) | > 30 | > 30 | > 90 |  |  |
| Oc1cc(Cl)ccc1Oc1ccc(Cl)cc1Cl [TRICLOSAN] | 0.0484 |  |  |  |  |  |  |  |

— ChEMBL document CHEMBL1139805, “Marine natural products from the Turkish sponge Agelas oroides that inhibit the enoyl reductases from Plasmodium falciparum, Mycobacterium tuberculosis and Escherichia coli” (Bioorg Med Chem, 2007)
